According to patent US5763450A, “Substituted benzyl pyrimidines” (Hoffmann-La Roche Inc., priority 1994, dated 1998):
Where a name gives a salt, the structure may show the parent alone.

Assays:
[1] = target: T1, purified DHFR of the opportunistic pathogen P. carinii (Pneumocystis carinii, UniProt P16184); test: biochemical; conditions: determined graphically
T1 sequence (P16184 1-206): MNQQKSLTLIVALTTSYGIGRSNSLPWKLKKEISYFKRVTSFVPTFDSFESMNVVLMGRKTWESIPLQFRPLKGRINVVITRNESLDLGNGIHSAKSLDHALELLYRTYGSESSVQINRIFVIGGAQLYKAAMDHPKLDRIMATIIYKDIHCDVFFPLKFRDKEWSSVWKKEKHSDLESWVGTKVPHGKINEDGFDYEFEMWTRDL

[2] = system: purified DHFR of the multi-resistant strain S. aureus 157/4696; test: Inhibition of purified DHFR of multi-resistant strain S. aureus 157/4696; assay type: biochemical; conditions: determined graphically
Experimental: The inhibition of the enzyme was taken as a measurement for the antibacterial activity. It is determined using the method of Baccanari and Joyner (Biochemistry 20, 1710 (1981)); see also P. G. Hartman et al., FEB 242, 157-160 (1988).
The IC50 values (concentration at which the enzyme is inhibited to 50%) are determined graphically.
The following Table contains inhibitory concentrations determined in the above test for representative members of the class of compound defined by formula I. The C50 values (μM) are given against the purified DHFR of the reference strain S. aureus ATCC 35923 as well as against the purified DHFR of the multi-resistant strain S. aureus 157/4696. […] The inhibition constants of trimethoprim are also given as a comparison.

[3] = target: purified DHFR of the reference strain S. aureus ATCC 25923 (Staphylococcus aureus, UniProt P0A017); test: Inhibition of purified DHFR of reference strain S. aureus ATCC 25923; assay type: biochemical
Sequence of purified DHFR of the reference strain S. aureus ATCC 25923 (P0A017 whole entry): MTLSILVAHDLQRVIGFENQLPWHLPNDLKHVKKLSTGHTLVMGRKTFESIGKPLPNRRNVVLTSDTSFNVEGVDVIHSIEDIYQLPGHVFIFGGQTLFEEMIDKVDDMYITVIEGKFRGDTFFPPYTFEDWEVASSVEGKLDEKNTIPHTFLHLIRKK

`COc1cc(Cc2cnc(N)nc2N)cc(-c2ccc3ccccc3c2)c1OC` [Example 4h, 5-(3,4-dimethoxy-5-naphthalen-2-yl-benzyl)pyrimidine-2,4-diamine] showed an IC50 [1] of 1600 nM, an IC50 [2] of 1300 nM and an IC50 [3] of 2.2 nM.
Compound `COc1cc(Cc2cnc(N)nc2N)cc(-c2cccc(O)c2)c1OC` [Example 5b, 5-(3'-hydroxy-5,6-dimethoxy-biphenyl-3-ylmethyl)-pyrimidine-2,4-diamine] has an IC50 [1] of 2300 nM, an IC50 [2] of 2200 nM and an IC50 [3] of 4 nM.
`COc1cc(Cc2cnc(N)nc2N)cc(-c2ccc(C(=O)O)cc2)c1OC` [Example 5c, 5-(4'-carboxyl-5,6-dimethoxy-biphenyl-3-ylmethyl)-pyrimidine-2,4-diamine hydrochloride] was tested, and the IC50 [1] was 480 nM, the IC50 [2] was 420 nM and the IC50 [3] was 0.9 nM.
For `COc1cc(Cc2cnc(N)nc2N)cc(-c2ccc3cc(O)ccc3c2)c1OC` [Example 5h, 5-(3,4-dimethoxy-5-naphthalen-6-hydroxy-2-yl-benzyl)-pyrimidine-2,4-diamine], the IC50 [1] was 1000 nM, the IC50 [2] was 500 nM and the IC50 [3] was 1.3 nM.
Compound `COc1cc(Cc2cnc(N)nc2N)cc(-c2cc3c(cc2F)c(=O)c(C(=O)O)cn3C2CC2)c1OC` [Example 9a, 1-cyclopropyl-7-[5-(2,4-diaminopyrimidin-5-ylmethyl)-2,3-dimethoxy-phenyl]-6-fluoro-1,4-dihydro-4-oxo-quinoline-3-carboxylic acid trifluoroacetate] has an IC50 [1] of 19 nM, an IC50 [2] of 50 nM and an IC50 [3] of 0.9 nM.
For `COc1ccc(Cc2cnc(N)nc2N)cc1-c1cc2c(cc1F)c(=O)c(C(=O)O)cn2C1CC1` [Example 9b, 1-cyclopropyl-7-[5-(2,4-diamino-pyrimidin-5-ylmethyl)-2-methoxy-phenyl]-6-fluoro-1,4-dihydro-4-oxo-quinoline-3-carboxylic acid trifluoroacetate], the IC50 [1] was 38 nM, the IC50 [2] was 110 nM and the IC50 [3] was 0.2 nM.
With `Nc1ncc(Cc2cccc(-c3cc4c(cc3F)c(=O)c(C(=O)O)cn4C3CC3)c2)c(N)n1` [Example 9c, 1-cyclopropyl-7-[5-(2,4-diamino-pyrimidin-5-ylmethyl)-phenyl]-6-fluoro-1,4-dihydro-4-oxo-quinoline-3-carboxylic acid] the IC50 [1] was 200 nM, the IC50 [2] was 210 nM and the IC50 [3] was 1.9 nM.
`COc1cc(Cc2cnc(N)nc2N)cc(C=Cc2ccc3ccccc3c2)c1OC` [Example 10b, 5-[3,4-dimethoxy-5-(2-naphthalen-2-yl-vinyl)-benzyl]-pyrimidine-2,4-diamine] gave an IC50 [1] of 4000 nM, an IC50 [2] of 750 nM and an IC50 [3] of 20 nM.
`CCOC(=O)c1cn(CC)c2cc(C#Cc3cc(Cc4cnc(N)nc4N)cc(OC)c3OC)ccc2c1=O` [Example 12g, ethyl 1-ethyl-7-[5-(2,4-diamino-pyrimidin-5-ylmethyl)-2,3-dimethoxy-phenylethynyl]-4-oxo-1,4-dihydro-quinoline-3-carboxylate] was tested, and the IC50 [1] was 900 nM, the IC50 [2] was 130 nM and the IC50 [3] was 5 nM.
`COc1cc(Cc2cnc(N)nc2N)cc(C#Cc2ccc3ccccc3c2)c1OC` [Example 15a, 5-[3,4-dimethoxy-5-(naphthalen-2-ylethynyl)-benzyl]-pyrimidine-2,4-diamine] was tested, and the IC50 [1] was 8000 nM, the IC50 [2] was 700 nM and the IC50 [3] was 15 nM.
In the case of `COc1cc(Cc2cnc(N)nc2N)cc(C#Cc2ccc3c(=O)c(C(=O)O)cn(C(C)(C)C)c3c2)c1OC` [Example 16ac, 1-tert-butyl-7-[5-(2,4-diamino-pyrimidin-5-ylmethyl)-2,3-dimethoxy-phenylethynyl]-4-oxo-1,4-dihydro-quinoline-3-carboxylate hydrochloride], the IC50 [1] is reported as 190 nM, the IC50 [2] is reported as 1.6 nM and the IC50 [3] is reported as 0.9 nM.
For `COc1cc(Cc2cnc(N)nc2N)cc(C#Cc2c(F)cc3c(=O)c(C(=O)O)cn(C4CC4)c3c2F)c1OC` [Example 16c, 1-cyclopropyl-7-[5-(2,4-diamino-pyrimidin-5ylmethyl)-2,3-dimethoxy-phenylethynyl]-6,8-difluoro-1,4-dihydro-4-oxo-quinoline-3-carboxylic acid hydrochloride], the IC50 [1] was 36 nM, the IC50 [2] was 2.4 nM and the IC50 [3] was 1.2 nM.
`COc1cc(Cc2cnc(N)nc2N)cc(C#Cc2cc3c(cc2F)c(=O)c(C(=O)O)cn3C2CC2)c1OC` [Example 16e, 1-cyclopropyl-7-[5-(2,4-diamino-pyrimidin-5-ylmethyl)-2,3-dimethoxy-phenylethynyl]-6-fluoro-4-oxo-1,4-dihydro-quinoline-3-carboxylic acid trifluoroacetate] was tested, and the IC50 [1] was 3400 nM, the IC50 [2] was 80 nM and the IC50 [3] was 2.9 nM.
Compound `CCn1cc(C(=O)O)c(=O)c2cc(F)c(C#Cc3cc(Cc4cnc(N)nc4N)cc(OC)c3OC)cc21` [Example 16f, 1-ethyl-7-[5-(2,4-diamino-pyrimidin-5-ylmethyl)-2,3-dimethoxy-phenylethynyl]-6-fluoro-4-oxo-1,4-dihydro-quinoline-3-carboxylic acid hydrochloride] has an IC50 [1] of 280 nM, an IC50 [2] of 6.5 nM and an IC50 [3] of 1.5 nM.
`COc1cc(Cc2cnc(N)nc2N)cc(C#Cc2ccc3cc(C(=O)O)ccc3c2)c1OC` [Example 16j, 6-[5-(2,4-diamino-pyrimidin-5-ylmethyl)-2,3-dimethoxy-phenylethynyl]-naphthalene-2-carboxylic acid hydrochloride] was tested, and the IC50 [1] was 5000 nM, the IC50 [2] was 24 nM and the IC50 [3] was 0.9 nM.
Work on `COc1cc(Cc2cnc(N)nc2N)cc(C#Cc2ccc3c(=O)c(C(=O)O)cn(Cc4ccccc4)c3c2)c1OC` [Example 16p, hydrochloride] yielded an IC50 [1] of 140 nM, an IC50 [2] of 1.3 nM and an IC50 [3] of 1.2 nM.
